Laboratory results from PMC12799421, “Inhibition of constitutive activity of the atypical chemokine receptor 3 by the small-molecule inverse agonist VUF16840” (Molecular Pharmacology, 2025).

How the values were obtained:
ACKR3 [1] = target: T1, ACKR3 (Homo sapiens, UniProt P25106); assay: BRET β-arrestin2 recruitment to hACKR3 in HEK293T cells; type: cell-based; conditions: for EC50: * VUF16840 as inverse agonist, mean ± SD (N), read-out: β-arrestin2 BRET pEC50 (converted)
T1 construct: expressed in transfected cells; host or cells: HEK293T
T1 sequence (P25106 whole entry): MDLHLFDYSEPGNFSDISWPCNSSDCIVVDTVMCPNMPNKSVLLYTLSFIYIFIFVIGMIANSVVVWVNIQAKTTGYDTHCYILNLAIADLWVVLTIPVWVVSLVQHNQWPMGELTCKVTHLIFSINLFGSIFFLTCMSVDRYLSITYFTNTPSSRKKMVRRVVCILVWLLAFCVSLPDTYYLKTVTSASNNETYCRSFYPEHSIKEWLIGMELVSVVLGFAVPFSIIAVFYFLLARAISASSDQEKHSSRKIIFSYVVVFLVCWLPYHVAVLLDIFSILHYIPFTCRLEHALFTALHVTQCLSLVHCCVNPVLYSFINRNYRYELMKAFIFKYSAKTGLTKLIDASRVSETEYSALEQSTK
Description: For bioluminescence resonance energy transfer (BRET) experiments, several BRET acceptor constructs were used that consist of the pcDEF3 vector with either GRK2 (NCBI: NM_174710.2), β-arrestin1 (NCBI: NM_174243.3), or β-arrestin2 (NCBI: XM_005220181.4) fused at the C-terminus with a SpeI/NotI linker to mVenus (NCBI: KP666136.1), as previously described.[34]
(§1) For 1·10^6 HEK293T cells, a transfection mix consisting of 2 μg plasmid DNA, 12 μg linear PEI in a total volume of 200 μL 150 mM NaCl was made and thoroughly vortexed. The transfection mix was incubated for 15 minutes and consequently added to a cell suspension with a final concentration of 3·10^5 cells/mL. For functional studies this cell suspension was immediately transferred to a poly-L-lysine-coated white 96-well plate, with 3·10^4 cells per well. […] For BRET-based membrane localization experiments, the 2 μg plasmid DNA consisted of ACKR3-NL (0.05 μg), mVenus-CAAX (0.25 μg), and pcDEF3 vector DNA without insert (1.7 μg).
(§2) Mean pIC50 values were determined by averaging fitted values from individual experiments. Graphs depict the pooled data of all experiments. Similarly, sigmoidal, ligand-induced concentration-dependent activation or inhibition of the proximity between ACKR3 and the protein of interest was analyzed using GraphPad Prism 8, by fitting a 3-parameter concentration-response model to the data, to determine pEC50/pIC50 values. Mean pEC50 values and pIC50 values were determined by averaging fitted values from individual experiments. Graphs depict the pooled data of all experiments, for which values are normalized, per experiment, to the fold difference compared with basal signal.

ACKR3 [2] = target: T1, ACKR3; assay: NanoBiT-complementation β-arrestin2 recruitment to hACKR3 in HEK293T cells; type: cell-based; conditions: for EC50: * VUF16840 as inverse agonist, 15 minutes incubation, read-out: β-arrestin2 NanoBit pEC50 (converted)
Description: as §1
Two days after transfection (vide supra), medium was aspirated and cells were reconstituted in HBSS with 0.05% BSA. […] After treating the cell with ligand furimazine was added (310 times diluted from stock concentration). Cells were incubating at 37 °C for another 3 minutes before detection of bioluminescent intensities.
To determine the insurmountable antagonism of VUF16840, medium of transfected cells was aspirated and cells were reconstituted in HBSS with 20 mM HEPES and 0.1% BSA. Cells were incubated with VUF16840 or buffer for 60 minutes after which furimazine was added and cells were incubated for another 5 minutes, all at 37 °C.
Bioluminescence was measured using the PHERAstar-FSX and is a measure for the relative proximity of LgBiT- and SmBiT-tagged proteins and thus the occurrence of investigated protein–protein interaction.[38]
as §2

D3-ACKR3+ cells = assay: CXCL12 uptake in ACKR3-overexpressing hCMEC/D3 cells; type: cell-based, human
Text: Human CMEC (D3) cells (CVCL_U985) stably overexpressing ACKR3 and empty vector control were generated by retroviral transductions. The lentiviral expression vector encoding the human ACKR3 was created by cloning the ACKR3 gene (NM_020311.3 from GenScript) in the restriction sites Nhe1/Sma1 of the pLV-LifeAct (a kind gift of Dr Niels Heemskerk). Lentiviral particles were packaged in HEK293T cells, cultured in Dulbecco’s modified Eagle’s medium containing 10% fetal calf serum, 1% penicillin/streptomycin (ThermoFisher Scientific) at 37 °C in a 5% CO2 incubator. Lentiviral expression and packaging vectors were introduced using calcium phosphate transfection. […] Supernatant was taken off, cells were washed 1× with medium and CXCL12-A647 signal in cells was measured using a BioTek Cytation microplate reader (Agilent). […]
The sigmoidal concentration-dependent displacement of binding of the probes [^3H]VUF15485 and CXCL12-A647 by unlabeled ligands were analyzed using GraphPad Prism 8, by fitting a one-site binding model to the data, to determine the pIC50. Mean pIC50 values were determined by averaging fitted values from individual experiments. […] Mean pEC50 values and pIC50 values were determined by averaging fitted values from individual experiments. […]

EC50 (ACKR3 [1]) [µM]	EC50 (ACKR3 [2]) [µM]	IC50 (ACKR3 [1]; constitutive, no agonist, read-out: IC50, reduction of β-arrestin2 recruitment to hACKR3 (BRET)) [µM]	IC50 (ACKR3 [1]; versus 100 nM CXCL11, read-out: β-arrestin2 BRET, Inhibition by VUF16840 (pIC50) (converted)) [µM]	IC50 (ACKR3 [1]; versus 100 nM CXCL12, read-out: β-arrestin2 BRET, Inhibition by VUF16840 (pIC50) (converted)) [µM]	IC50 (ACKR3 [1]; versus 100 nM VUF15485, read-out: β-arrestin2 BRET, Inhibition by VUF16840 (pIC50) (converted)) [µM]	fashion of inhibition of CXCL12- and CXCL11-mediated β-arrestin2 recruitment (Schild analysis) (ACKR3 [2]; 60 minutes pretreatment with VUF16840)	IC50 (ACKR3 [2]; inverse agonist, after 30 minutes of incubation, read-out: IC50, inhibition of constitutive β-arrestin2 recruitment to hACKR3 (NanoBiT)) [µM]	IC50 (ACKR3 [2]; versus 100 nM VUF15485, read-out: β-arrestin2 NanoBit, Inhibition by VUF16840 (pIC50) (converted)) [µM]	Structure (SMILES)	CXCL12-AF647 uptake (mean fluorescent intensity) (D3-ACKR3+ cells; 3 nM CXCL12-AF647 60 minutes, 1, 10 or 100 nM VUF16840)	uptake of CXCL12-AF647 (confocal microscopy) (D3-ACKR3+ cells; 3 nM CXCL12-AF647, 100 nM VUF16840)
0.0126	0.0158								COc1cc(C(=O)N(CCC2CCCN2C)CC(C)=Cc2ccccc2F)cc(OC)c1OC (stereo not shown) [VUF15485, reference compound]		
0.01	0.0158	0.01	0.002	0.00251	0.01	nonsurmountable	0.0063	0.02	COc1ccccc1CCNC(=O)C1CN(C2CCCCC2)CCC1NC(=O)c1cc(-c2ccc(F)cc2F)on1 (stereo not shown) [VUF16840]	concentration-dependent inhibition	abolished
